In patent US20250236627A1, “CERTAIN OCTAHYDROFURO[3,4- B]PYRAZINES AS GLP-1 RECEPTOR MODULATORS” (ASTRAZENECA AB, priority 2021, published 2025):

Tests used:
[1] = molecular target: T1, human GLP-1R receptor (Homo sapiens, UniProt P43220, L260F); assay: CHOK1 GLP-1R cAMP Assay; format: cell-based; settings: CHO-K1 cell line stably expressing human GLP-1R; HTRF cAMP detection
T1 construct: expressed in transfected cells; host or cells: CHO-K1 (ATCC CCL-61)
Procedure, shortened: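 CHO-K1 cells, 800/well, stimulated 20 min at room temperature with compound in HEPES pH 7.4/HBSS/0.1% BSA plus IBMX (1 mM in the added buffer). cAMP measured by HTRF competitive immunoassay after ≥1 h, converted to pM via standard curve. EC50 from 4-parameter logistic fit; % effect relative to saturating GLP1(7-36)NH2.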

[2] = molecular target: T2, endogenous human glucagon-like peptide 1 receptor (GLP-1R) (Homo sapiens, UniProt P43220); assay: EndoC cAMP Accumulation Assay; format: cell-based; settings: EndoC-βH1 human pancreatic β cell line; HTRF cAMP assay
T2 construct: endogenous human glucagon-like peptide 1 receptor (GLP-1R) in a pancreatic insulinoma cell line; host or cells: EndoC-βH1 human pancreatic β cell line
Procedure, shortened: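 Thawed EndoC-βH1 cells (3000 per well) were stimulated for 30 min at room temperature in HBSS/25 mM HEPES pH 7.4, 0.1% BSA and 0.5 mM IBMX. cAMP was measured by HTRF competitive immunoassay after 1 h. Responses were fitted by 4-parameter logistic as % activation relative to maximal GIP (82.5 nM), with basal cAMP as zero.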

[3] = molecular target: T3, human phosphodiesterase-3A (Homo sapiens, UniProt Q14432); assay: PDE3 Assay; format: biochemical; settings: human recombinant enzyme expressed in Sf9 cells; formation of 5′AMP from cAMP
T3 construct: host or cells: Sf9 cells
Description: Evaluation of the effects of compounds on the activity of the human phosphodiesterase-3A is quantified by measuring the formation of 5′AMP from cAMP using a human recombinant enzyme expressed in Sf9 cells.
The test compound, reference compound or water (control) are added to a buffer containing 40 mM Tris/HCl (pH 7.4) and 8 mM MgCl2, 450 nM cAMP and 0.25 μCi [^3H]cAMP.
Thereafter, the reaction is initiated by addition of the enzyme (about 1 U) and the mixture is incubated for 20 min at 22° C.
For basal control measurements, the enzyme is omitted from the reaction mixture.
Following incubation SPA beads are added. After 30 min at 22° C. under shaking, the amount of [^3H]5′AMP is quantified with a scintillation counter (Topcount, Packard).
The results are expressed as a percent inhibition of the control enzyme activity. The standard inhibitory reference compound is milrinone (CAS number 78415-72-2), which is tested in each experiment at several concentrations to obtain an inhibition curve from which its IC50 value is calculated.

T2 sequence (P43220 24-463): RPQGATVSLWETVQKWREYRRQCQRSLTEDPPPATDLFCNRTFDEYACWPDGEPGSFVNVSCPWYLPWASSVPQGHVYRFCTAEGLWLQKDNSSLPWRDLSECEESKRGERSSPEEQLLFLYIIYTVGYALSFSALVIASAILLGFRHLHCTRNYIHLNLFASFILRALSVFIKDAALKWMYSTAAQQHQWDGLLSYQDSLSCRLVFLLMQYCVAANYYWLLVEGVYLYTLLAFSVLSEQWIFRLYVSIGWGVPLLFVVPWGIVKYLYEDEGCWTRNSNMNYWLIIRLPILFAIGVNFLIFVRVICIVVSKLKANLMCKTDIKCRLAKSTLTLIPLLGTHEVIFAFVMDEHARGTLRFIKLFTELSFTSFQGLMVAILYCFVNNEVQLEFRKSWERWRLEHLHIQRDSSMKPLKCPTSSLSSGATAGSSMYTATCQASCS
T3 sequence (Q14432 whole entry): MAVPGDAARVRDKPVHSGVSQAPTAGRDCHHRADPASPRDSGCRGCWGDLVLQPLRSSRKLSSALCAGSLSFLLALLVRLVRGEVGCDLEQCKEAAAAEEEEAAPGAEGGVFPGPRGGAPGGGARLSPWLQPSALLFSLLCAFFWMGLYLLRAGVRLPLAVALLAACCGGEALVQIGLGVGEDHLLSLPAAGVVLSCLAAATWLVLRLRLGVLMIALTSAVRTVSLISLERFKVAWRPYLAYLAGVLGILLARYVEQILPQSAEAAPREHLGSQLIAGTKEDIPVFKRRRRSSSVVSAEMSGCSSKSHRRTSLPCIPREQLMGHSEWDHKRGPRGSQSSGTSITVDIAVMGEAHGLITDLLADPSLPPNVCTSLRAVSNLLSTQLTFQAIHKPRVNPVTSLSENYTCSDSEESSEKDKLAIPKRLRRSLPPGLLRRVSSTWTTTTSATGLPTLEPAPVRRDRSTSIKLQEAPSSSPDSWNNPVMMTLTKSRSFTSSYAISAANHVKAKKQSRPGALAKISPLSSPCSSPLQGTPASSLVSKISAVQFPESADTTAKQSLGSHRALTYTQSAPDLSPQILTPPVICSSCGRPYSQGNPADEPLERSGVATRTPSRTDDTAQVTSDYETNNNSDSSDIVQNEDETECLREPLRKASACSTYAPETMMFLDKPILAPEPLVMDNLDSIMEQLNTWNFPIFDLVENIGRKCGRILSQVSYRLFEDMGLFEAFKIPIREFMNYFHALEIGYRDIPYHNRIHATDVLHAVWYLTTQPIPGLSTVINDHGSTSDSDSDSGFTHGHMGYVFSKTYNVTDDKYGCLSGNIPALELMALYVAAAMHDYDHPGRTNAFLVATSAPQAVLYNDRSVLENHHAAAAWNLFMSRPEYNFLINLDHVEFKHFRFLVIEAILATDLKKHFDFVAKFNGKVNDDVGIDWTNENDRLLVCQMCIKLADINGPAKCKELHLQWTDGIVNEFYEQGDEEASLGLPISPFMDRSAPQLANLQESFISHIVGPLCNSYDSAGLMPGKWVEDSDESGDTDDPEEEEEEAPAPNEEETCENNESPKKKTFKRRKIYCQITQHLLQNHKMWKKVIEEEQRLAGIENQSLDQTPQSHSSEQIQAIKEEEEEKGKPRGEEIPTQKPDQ
T1 sequence (P43220 24-463 L260F): as the sequence (P43220 24-463) above, with L237F counted along it

Structure (SMILES)	EC50 [1]	EC50 [2]	IC50 [3]
C[C@]1(c2ccc(Cl)cn2)Oc2cccc(N3CCN(Cc4nc5c(Cl)cc(C(=O)O)cc5n4CC4(C#N)CC4)[C@H]4COC[C@H]43)c2O1 (single isomer, unassigned) [Example 23a]	1.8 nM	5 nM	> 100000 nM
C[C@]1(c2ccc(Cl)cn2)Oc2cccc(N3CCN(Cc4nc5ccc(C(=O)O)cc5n4CC4(CC#N)CC4)[C@H]4COC[C@H]43)c2O1 (single isomer, unassigned) [Example 25]	5.1 nM	8 nM	> 100000 nM
C[C@]1(c2ccc(Cl)cn2)Oc2cccc(N3CCN(Cc4nc5ccc(C(=O)O)cc5n4C[C@@H]4CCO4)[C@H]4COC[C@H]43)c2O1 (single isomer, unassigned) [Example 5b, 2-(((4aR*,7aS*)-4-((R*)-2-(5-Chloropyridin-2-yl)-2-methylbenzo[d][1,3]dioxol-4-yl)hexahydrofuro[3,4-b]pyrazin-1(2H)-yl)methyl)-1-(((S)-oxetan-2-yl)methyl)-1H-benzo[d]imidazole-6-carboxylic acid]	2.2 nM	9.5 nM	> 100000 nM
C[C@]1(c2ccc(Cl)cc2F)Oc2cccc(N3CCN(Cc4nc5ccc(C(=O)O)cc5n4C[C@@H]4CCO4)[C@H]4COC[C@H]43)c2O1 (single isomer, unassigned) [Example 6a, 2-(((4aR*,7aS*)-4-((R*)-2-(4-Chloro-2-fluorophenyl)-2-methylbenzo[d][1,3]dioxol-4-yl)hexahydrofuro[3,4-b]pyrazin-1(2H)-yl)methyl)-1-(((S)-oxetan-2-yl)methyl)-1H-benzo[d]imidazole-6-carboxylic acid]	1.5 nM	0.92 nM	> 100000 nM
C[C@]1(c2ccc(Cl)cn2)Oc2cccc(N3CCN(Cc4nc5c(F)cc(C(=O)O)cc5n4C[C@@H]4CCO4)[C@H]4COC[C@H]43)c2O1 (single isomer, unassigned) [Example 9d, 2-(((4aR*,7aS*)-4-((R*)-2-(5-Chloropyridin-2-yl)-2-methylbenzo[d][1,3]dioxol-4-yl)hexahydrofuro[3,4-b]pyrazin-1(2H)-yl)methyl)-4-fluoro-1-(((S)-oxetan-2-yl)methyl)-1H-benzo[d]imidazole-6-carboxylic acid]	320 nM	2100 nM	> 100000 nM
